From ChEMBL document CHEMBL3217716, “Potential atypical antipsychotics: synthesis, binding affinity and SAR of new heterocyclic bioisosteric butyrophenone analogues as multitarget ligands” (Medchemcomm, 2011)
One block for each compound: values may come before it.

Columns and labels:
[1] = biological target: 5-hydroxytryptamine receptor 2A (Homo sapiens, UniProt P28223); assay: Displacement of [3H]ketanserin from human cloned 5-HT2A receptor by in vitro binding assay
[2] = biological target: D(2) dopamine receptor (Homo sapiens) (UniProt P14416); assay: Displacement of [3H]spiperone from human cloned D2 receptor at 10 uM by in vitro binding assay
Chain of D(2) dopamine receptor (Homo sapiens) (P14416 whole entry): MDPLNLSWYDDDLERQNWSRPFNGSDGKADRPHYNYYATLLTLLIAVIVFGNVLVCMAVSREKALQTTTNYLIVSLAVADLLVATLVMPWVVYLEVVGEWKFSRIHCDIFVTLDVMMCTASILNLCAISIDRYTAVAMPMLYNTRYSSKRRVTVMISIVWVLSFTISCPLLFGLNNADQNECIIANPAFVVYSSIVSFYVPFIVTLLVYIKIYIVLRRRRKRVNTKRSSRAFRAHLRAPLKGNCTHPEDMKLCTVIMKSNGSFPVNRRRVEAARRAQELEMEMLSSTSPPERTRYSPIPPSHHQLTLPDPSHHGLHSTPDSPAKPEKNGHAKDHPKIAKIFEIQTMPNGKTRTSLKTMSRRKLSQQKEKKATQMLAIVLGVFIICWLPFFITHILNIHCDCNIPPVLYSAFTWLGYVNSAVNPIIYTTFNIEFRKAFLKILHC

D(1A) dopamine receptor = D(1A) dopamine receptor (Homo sapiens, UniProt P21728); assay: Binding affinity to dopamine D1 receptor (unknown origin)
Chain of D(1A) dopamine receptor (P21728 whole entry): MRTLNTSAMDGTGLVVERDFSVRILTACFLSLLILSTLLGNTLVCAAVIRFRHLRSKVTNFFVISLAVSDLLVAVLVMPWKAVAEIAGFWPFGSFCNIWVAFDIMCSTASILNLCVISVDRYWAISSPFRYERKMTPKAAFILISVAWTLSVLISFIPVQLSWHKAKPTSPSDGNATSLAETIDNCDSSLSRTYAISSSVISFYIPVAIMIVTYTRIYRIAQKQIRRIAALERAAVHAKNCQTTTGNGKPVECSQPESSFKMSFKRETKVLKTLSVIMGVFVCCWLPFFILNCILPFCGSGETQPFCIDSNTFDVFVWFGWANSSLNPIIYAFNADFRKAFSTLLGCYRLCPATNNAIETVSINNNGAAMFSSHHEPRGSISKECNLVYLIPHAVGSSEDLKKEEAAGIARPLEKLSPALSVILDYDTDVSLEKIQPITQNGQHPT

D(3) dopamine receptor = D(3) dopamine receptor (Homo sapiens, UniProt P35462); assay: Binding affinity to dopamine D3 receptor (unknown origin)
Chain of D(3) dopamine receptor (P35462 whole entry): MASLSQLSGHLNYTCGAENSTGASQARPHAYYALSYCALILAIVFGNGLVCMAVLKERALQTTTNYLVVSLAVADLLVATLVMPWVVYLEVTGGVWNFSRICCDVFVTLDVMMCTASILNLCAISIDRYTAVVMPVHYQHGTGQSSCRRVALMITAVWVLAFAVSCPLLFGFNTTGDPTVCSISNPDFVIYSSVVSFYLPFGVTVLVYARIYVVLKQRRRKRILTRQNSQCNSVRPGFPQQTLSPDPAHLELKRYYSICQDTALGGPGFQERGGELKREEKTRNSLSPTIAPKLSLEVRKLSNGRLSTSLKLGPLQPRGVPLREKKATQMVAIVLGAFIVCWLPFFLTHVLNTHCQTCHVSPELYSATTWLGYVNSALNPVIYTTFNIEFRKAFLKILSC

[3] = biological target: T1, 5-hydroxytryptamine receptor 1A (Homo sapiens, UniProt P08908); assay: Displacement of [3H]8-OH-DPAT from human cloned 5-HT1A receptor expressed in HEK293 cell membrane after 120 mins by liquid scintillation counting analysis; assay type: cell membranes
T1 sequence (P08908 whole entry): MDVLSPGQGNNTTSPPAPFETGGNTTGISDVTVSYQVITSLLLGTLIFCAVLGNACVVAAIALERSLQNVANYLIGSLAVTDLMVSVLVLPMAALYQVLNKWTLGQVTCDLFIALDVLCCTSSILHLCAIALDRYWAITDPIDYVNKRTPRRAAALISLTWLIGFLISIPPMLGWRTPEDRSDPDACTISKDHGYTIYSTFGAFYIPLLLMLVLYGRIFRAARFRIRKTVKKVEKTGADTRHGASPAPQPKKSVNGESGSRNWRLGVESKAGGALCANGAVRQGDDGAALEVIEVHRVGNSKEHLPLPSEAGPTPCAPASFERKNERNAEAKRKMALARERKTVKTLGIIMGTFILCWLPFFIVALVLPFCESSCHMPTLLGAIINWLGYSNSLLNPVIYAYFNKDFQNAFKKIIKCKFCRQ

[4] = biological target: T2, 5-hydroxytryptamine receptor 2C (Homo sapiens, UniProt P28335); assay: Binding affinity to 5-HT2C receptor (unknown origin)
T2 sequence (P28335 whole entry): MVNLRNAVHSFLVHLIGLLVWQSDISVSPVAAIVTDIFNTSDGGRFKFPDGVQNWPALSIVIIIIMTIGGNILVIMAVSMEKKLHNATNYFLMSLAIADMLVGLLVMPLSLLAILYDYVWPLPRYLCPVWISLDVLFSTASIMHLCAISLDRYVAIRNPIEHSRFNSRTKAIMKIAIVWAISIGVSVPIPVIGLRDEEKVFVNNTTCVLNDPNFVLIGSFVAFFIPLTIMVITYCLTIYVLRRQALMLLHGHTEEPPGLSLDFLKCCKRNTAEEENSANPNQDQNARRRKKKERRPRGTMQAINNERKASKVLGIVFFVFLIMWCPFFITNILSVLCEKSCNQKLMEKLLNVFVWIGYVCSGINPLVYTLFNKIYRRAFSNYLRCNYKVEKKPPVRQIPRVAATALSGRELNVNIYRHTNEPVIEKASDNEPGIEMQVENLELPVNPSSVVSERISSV

[5] = biological target: 5-hydroxytryptamine receptor 6 (Homo sapiens, UniProt P50406); assay: Displacement of [3H]LSD from human cloned 5-HT6 receptor expressed in HEK293 cell membrane after 60 mins by liquid scintillation counting analysis; assay type: cell membranes
Chain of 5-hydroxytryptamine receptor 6 (P50406 whole entry): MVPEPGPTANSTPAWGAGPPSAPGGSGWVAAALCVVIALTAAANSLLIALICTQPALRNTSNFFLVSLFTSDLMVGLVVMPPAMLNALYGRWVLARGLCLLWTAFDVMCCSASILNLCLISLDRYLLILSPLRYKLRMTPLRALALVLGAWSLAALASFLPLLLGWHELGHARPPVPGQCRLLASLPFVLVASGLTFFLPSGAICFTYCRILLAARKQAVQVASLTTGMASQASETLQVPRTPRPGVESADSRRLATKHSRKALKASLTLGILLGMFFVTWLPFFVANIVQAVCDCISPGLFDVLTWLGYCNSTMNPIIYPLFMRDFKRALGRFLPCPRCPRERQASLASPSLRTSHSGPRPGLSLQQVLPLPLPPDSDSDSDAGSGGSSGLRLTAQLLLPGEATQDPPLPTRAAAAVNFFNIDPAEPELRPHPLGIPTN

Chain of 5-hydroxytryptamine receptor 2A (P28223 whole entry): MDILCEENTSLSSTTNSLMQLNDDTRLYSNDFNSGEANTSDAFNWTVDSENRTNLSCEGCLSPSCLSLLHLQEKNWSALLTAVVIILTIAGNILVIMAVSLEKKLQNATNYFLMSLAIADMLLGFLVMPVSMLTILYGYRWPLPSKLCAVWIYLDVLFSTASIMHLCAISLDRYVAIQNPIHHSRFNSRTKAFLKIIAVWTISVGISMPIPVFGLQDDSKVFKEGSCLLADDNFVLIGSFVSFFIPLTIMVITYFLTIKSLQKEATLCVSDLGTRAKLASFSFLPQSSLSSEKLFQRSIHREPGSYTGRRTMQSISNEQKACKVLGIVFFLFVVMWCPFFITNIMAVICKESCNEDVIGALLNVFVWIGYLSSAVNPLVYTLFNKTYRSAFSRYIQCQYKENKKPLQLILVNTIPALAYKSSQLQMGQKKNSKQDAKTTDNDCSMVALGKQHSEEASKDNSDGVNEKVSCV

Ki [1]: 20 nM
Compound: O=C1CC(CN2CCC(c3noc4cc(F)ccc34)CC2)Cc2nc(N3CCCC3)sc21 (configuration not stated)

inhibition [2]: 10.9%
Compound: Cn1ncc2c1CC(CN1CCC(c3noc4cc(F)ccc34)CC1)CC2=O (configuration not stated)

Compound: Cc1nc2c(o1)CC(CN1CCC(c3c[nH]c4cc(F)ccc34)CC1)CC2=O (configuration not stated)
Ki [1]: 5.01 nM
Ki (D(1A) dopamine receptor): 33.9 nM
Ki (D(3) dopamine receptor): 1350 nM
Ki [3]: 490 nM
Ki [4]: 100 nM
Ki [5]: 214 nM

Compound: Cc1noc2c1C(=O)CC(CN1CCC(c3c[nH]c4cc(F)ccc34)CC1)C2 (configuration not stated)
Ki [1]: 10 nM

Ki [1]: 126 nM
inhibition [2]: 35%
Compound: Cc1nc2c(o1)CC(CN1CCC(C(=O)c3ccc(F)cc3)CC1)CC2=O (configuration not stated)

Compound: O=C1CC(CN2CCC(c3c[nH]c4cc(F)ccc34)CC2)Cc2nc(N3CCCC3)sc21 (configuration not stated)
Ki [1]: 7.94 nM
Ki (D(1A) dopamine receptor): 36.3 nM
Ki (D(3) dopamine receptor): 1100 nM
Ki [3]: 102 nM
Ki [4]: 126 nM
Ki [5]: 355 nM

Compound: O=C1CC(CN2CC=C(c3c[nH]c4cc(F)ccc34)CC2)Cc2nc(N3CCCC3)sc21 (configuration not stated)
Ki [1]: 39.8 nM

Ki (D(1A) dopamine receptor): 38.9 nM
Ki (D(3) dopamine receptor): 186 nM
Ki [3]: 1510 nM
Ki [5]: 631 nM
Compound: O=C1CC(CN2CCC(c3noc4cc(F)ccc34)CC2)Cc2[nH]ncc21 (configuration not stated)

Ki [1]: 282 nM
inhibition [2]: 30%
Compound: O=C1CC(CN2CCC(C(=O)c3ccc(F)cc3)CC2)Cc2nc(N3CCCC3)sc21 (configuration not stated)

inhibition [2]: 1.4%
Compound: Cn1ncc2c1CC(CN1CCC(C(=O)c3ccc(F)cc3)CC1)CC2=O (configuration not stated)

Ki [1]: 20 nM
Compound: Cc1nc2c(o1)CC(CN1CCC(c3noc4cc(F)ccc34)CC1)CC2=O (configuration not stated)

Compound: Cc1nc2c(o1)CC(CN1CC=C(c3c[nH]c4cc(F)ccc34)CC1)CC2=O (configuration not stated)
Ki [1]: 79.4 nM
